Key:
mGPDH = target: T1, mGPDH (Rattus norvegicus, UniProt P35571); assay: Superoxide/H2O2 production by mGPDH in isolated skeletal muscle mitochondria (Amplex UltraRed); format: biochemical; settings: for inhibition at 80 µM: read-out: mGPDH H2O2 production (% change at 80 μM); for mGPDH (% change from DMSO): primary screen, ∼2.5 µM, average of duplicates, 16.7 mM glycerol phosphate, no added calcium
T1 construct: Activity of mGPDH in frozen-thawed skeletal muscle mitochondria was measured; from tissue; host or cells: skeletal muscle mitochondria
T1 sequence (P35571 43-727): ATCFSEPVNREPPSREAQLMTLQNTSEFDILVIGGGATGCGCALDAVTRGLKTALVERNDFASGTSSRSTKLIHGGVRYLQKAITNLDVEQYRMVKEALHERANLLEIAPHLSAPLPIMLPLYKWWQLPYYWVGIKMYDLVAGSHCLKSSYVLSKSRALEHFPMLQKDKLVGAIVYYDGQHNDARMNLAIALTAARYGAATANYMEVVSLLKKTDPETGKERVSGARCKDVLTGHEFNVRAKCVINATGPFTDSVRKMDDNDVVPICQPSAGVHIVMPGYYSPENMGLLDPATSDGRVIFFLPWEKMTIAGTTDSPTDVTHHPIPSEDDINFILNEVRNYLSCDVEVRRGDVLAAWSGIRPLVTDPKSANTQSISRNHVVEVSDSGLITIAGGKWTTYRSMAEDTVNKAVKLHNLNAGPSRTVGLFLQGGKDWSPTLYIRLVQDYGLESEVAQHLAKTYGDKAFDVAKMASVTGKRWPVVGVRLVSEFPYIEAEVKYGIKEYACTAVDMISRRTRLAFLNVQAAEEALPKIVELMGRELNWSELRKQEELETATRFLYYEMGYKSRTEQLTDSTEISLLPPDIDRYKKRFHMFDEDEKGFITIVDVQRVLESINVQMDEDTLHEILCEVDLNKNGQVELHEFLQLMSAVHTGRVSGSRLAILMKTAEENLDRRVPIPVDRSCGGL

[1] = system: ubiquinone-binding site of complex I (site IQ); assay: Site-specific H2O2 production from site IQ in skeletal muscle mitochondria; format: biochemical, rat; settings: 5 mM succinate; for IQ (% change from DMSO): primary screen, ∼2.5 µM, average of duplicates;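 as to all read-outs here: H2O2 from superoxide detected by Amplex UltraRed fluorescence with added superoxide dismutase and horseradish peroxidase, endpoint read 30–40 min after substrate addition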
[2] = system: skeletal muscle mitochondria; assay: Mitochondrial membrane potential (ΔΨm, TMRM) powered by glutamate plus malate; format: biochemical, rat; settings: for ΔΨm with Glu + Mal + Nig (% change at 80 μM) / ΔΨm with Glu + Mal (% change at 80 μM): 5 mM glutamate, 5 mM malate; for ΔΨm with Glu + Mal + Nig (% change at 80 μM): with nigericin; for ΔΨm with Glu + Mal (% change at 80 μM): without nigericin; for ΔΨm (% change from DMSO): primary screen, ∼2.5 µM, average of duplicates, glutamate and malate
[3] = system: skeletal muscle mitochondria; assay: Mitochondrial membrane potential (ΔΨm, TMRM) powered by glycerol phosphate; format: biochemical, rat; settings: 80 μM; 16.7 mM glycerol phosphate, 4 µM rotenone, nigericin
[4] = system: flavin mononucleotide site of complex I (site IF) plus matrix NAD-linked dehydrogenases (site IF/DH); assay: Site-specific H2O2 production from site IF/DH in skeletal muscle mitochondria; format: biochemical, rat; settings: primary screen, ∼2.5 µM, average of duplicates
Experimental: (§1) Superoxide was measured as H2O2 after dismutation by endogenous or exogenous superoxide dismutase. Rates of total superoxide/H2O2 production were measured fluorimetrically using Amplex UltraRed in the presence of exogenous superoxide dismutase and horseradish peroxidase in a Varian Cary Eclipse fluorimeter as previously described. Rates of production from specific sites were determined as previously described using the following eight conditions: flavin mononucleotide site of complex I (site IF) plus matrix NAD-linked dehydrogenases (collectively "site IF/DH") with 5 mM glutamate, 5 mM malate, and 4 µM rotenone; ubiquinone-binding site of complex I (site IQ) with either 0.5 or 5 mM succinate; flavin site of complex II (site IIF) with either 15 µM palmitoylcarnitine, 2.5 µM antimycin A, and 2 µM myxothiazol or 0.5 mM succinate, 4 µM rotenone, 2.5 µM antimycin A, and 2 µM myxothiazol, [31]; mGPDH with 1.7 mM glycerol phosphate, 4 µM rotenone, 2.5 µM antimycin A, 2 µM myxothiazol, 1 mM malonate, and 250 nM free calcium; outer ubiquinone-binding site of complex III (site IIIQo) with either 0.5 or 5 mM succinate, 4 µM rotenone and 2.5 µM antimycin A [32]. Candidate small-molecule inhibitors were added prior to the start of measurements and H2O2 calibration curves were performed in the presence of tested compounds.
(§2) 3,200 compounds were tested initially at 2.5 µM (0.025% DMSO final) in duplicate on different plates against a panel of five distinct assays of site-specific superoxide/H2O2 production as described in the previous section with minor changes. […] Endpoint fluorescence was measured on a Perkin Elmer Victor V3 fluorescent plate reader. The fluorescence intensity of each well was normalized as % change from the average of eight DMSO controls on the same plate. Duplicate wells of each of four modulators of mitochondrial metabolism known to inhibit specific sites of superoxide/H2O2 production were included on each plate as positive controls and the resulting fluorescence levels set as −100% change from DMSO controls. Known inhibitors included 20 mM aspartate (for site IF/DH), 1 µM FCCP (for site IQ), 10 mM malonate (for site IIF), and 2 µM myxothiazol (for site IIIQo). The background fluorescence of the FCCP wells in the site IQ assay was used to normalize mGPDH plates run in parallel. To minimize position-dependent effects across each assay plate, Tukey’s two-way median polish was applied to fluorescence values after initial normalization, [36]. Tukey’s polish is an iterative subtraction of the median row and column values from each well’s given row or column. The procedure is repeated until sequential medians for each row and column are zero and positional gradients in fluorescence are eliminated.

[5] = target: T2, flavin site of complex II (site IIF) (Rattus norvegicus, UniProt Q920L2); assay: Site-specific H2O2 production from site IIF in skeletal muscle mitochondria; format: biochemical; settings: primary screen, ∼2.5 µM, average of duplicates; palmitoylcarnitine
T2 construct: from tissue; host or cells: skeletal muscle mitochondria
T2 sequence (Q920L2 35-656): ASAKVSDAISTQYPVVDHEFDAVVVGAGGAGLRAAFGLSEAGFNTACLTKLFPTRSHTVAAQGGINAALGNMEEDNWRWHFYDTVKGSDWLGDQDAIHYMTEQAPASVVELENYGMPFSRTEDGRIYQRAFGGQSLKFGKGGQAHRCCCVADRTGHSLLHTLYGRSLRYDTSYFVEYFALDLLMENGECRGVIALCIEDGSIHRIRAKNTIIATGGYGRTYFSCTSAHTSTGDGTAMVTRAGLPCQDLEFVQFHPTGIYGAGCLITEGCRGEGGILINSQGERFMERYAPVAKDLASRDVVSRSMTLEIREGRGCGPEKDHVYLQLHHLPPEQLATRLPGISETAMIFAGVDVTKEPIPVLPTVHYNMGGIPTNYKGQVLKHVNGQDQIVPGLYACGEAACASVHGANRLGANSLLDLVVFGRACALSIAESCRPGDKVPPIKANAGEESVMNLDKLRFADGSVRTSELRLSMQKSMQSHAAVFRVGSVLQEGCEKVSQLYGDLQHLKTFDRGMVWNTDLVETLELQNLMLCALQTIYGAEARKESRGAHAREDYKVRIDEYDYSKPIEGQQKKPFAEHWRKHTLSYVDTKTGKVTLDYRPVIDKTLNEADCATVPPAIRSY
T2 sequence (P21913 31-282 partner): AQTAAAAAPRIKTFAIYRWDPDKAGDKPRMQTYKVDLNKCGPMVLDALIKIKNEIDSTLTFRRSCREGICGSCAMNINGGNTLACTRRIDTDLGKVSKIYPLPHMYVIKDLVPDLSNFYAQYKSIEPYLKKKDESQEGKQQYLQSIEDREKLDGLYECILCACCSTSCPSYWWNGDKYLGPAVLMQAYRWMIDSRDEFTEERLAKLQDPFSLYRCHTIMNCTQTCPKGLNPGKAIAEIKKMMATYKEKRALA
T2 sequence (Q641Z9 30-169 partner limits assumed): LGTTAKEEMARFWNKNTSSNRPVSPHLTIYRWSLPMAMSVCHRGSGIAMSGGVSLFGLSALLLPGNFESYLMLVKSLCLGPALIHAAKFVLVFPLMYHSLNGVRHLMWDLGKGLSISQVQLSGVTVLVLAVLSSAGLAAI
T2 sequence (Q6PCT8 57-159 partner): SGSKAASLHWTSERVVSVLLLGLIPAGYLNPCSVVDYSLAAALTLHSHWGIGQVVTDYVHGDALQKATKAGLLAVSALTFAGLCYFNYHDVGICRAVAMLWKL
Experimental: as §1, §2

[6] = target: T3, outer ubiquinone-binding site of complex III (site IIIQo) (Rattus norvegicus, UniProt P00159+P20788); assay: Site-specific H2O2 production from site IIIQo in skeletal muscle mitochondria; format: biochemical; settings: primary screen, ∼2.5 µM, average of duplicates; 5 mM succinate
T3 construct: from tissue; host or cells: skeletal muscle mitochondria
Experimental: as §1, §2

inhibition at 80 µM (mGPDH) | mGPDH (% change from DMSO) (mGPDH) | IIF (% change from DMSO) [5] | IIIQo (% change from DMSO) [6] | SMILES | IQ H2O2 production with 5 mM Suc (% change at 80 μM) [1] | ΔΨm with Glu + Mal + Nig (% change at 80 μM) [2] | ΔΨm with Glu + Mal (% change at 80 μM) [2] | ΔΨm with GP + Nig (% change at 80 μM) [3] | IF/DH (% change from DMSO) [4] | IQ (% change from DMSO) [1] | ΔΨm (% change from DMSO) [2]
1% | – | – | – | Cc1ccc(NC(=O)CCC(=O)O)cc1 [iGP-19] | 7% | -2% | -8% | -2% | – | – | –
28% | – | – | – | CC(=O)Nc1ccc(-c2nc3ccccc3[nH]2)cc1 [iGP-12] | -21% | 2% | 10% | 2% | – | – | –
20% | – | – | – | COC(=O)CCC(=O)Nc1ccc(C)cc1 [iGP-20] | -8% | -1% | -3% | 0% | – | – | –
-11% | – | – | – | CCOc1ccc(C(=O)Nc2ccc(-c3nc4ccccc4[nH]3)cc2)cc1 [iGP-15] | -15% | -42% | 10% | -25% | – | – | –
2% | – | – | – | CCCC(=O)Nc1ccc(-c2nc3cc4ccccc4cc3[nH]2)cc1 [iGP-9] | -1% | 5% | 26% | 5% | – | – | –
– | -20.2% | -27.6% | -17.4% | c1coc(CNc2ccc3c(c2)OCO3)c1 [compound 5457094] | – | – | – | – | -27.2% | -27.2% | 0.527%
– | -10.7% | -1.2% | -9.7% | CC(=O)N(C)c1ccc(NC(=O)c2ccc(-c3ccccc3)cc2)cc1 [compound 5191683] | – | – | – | – | -3.4% | -6.3% | 0.5%
– | -28.0% | -44.6% | -6.9% | COc1ccc(NCc2ccccc2)cc1 [compound 5107549] | – | – | – | – | -41.3% | -27.5% | 0.3%
– | -37.3% | -62.7% | -48.5% | Nc1cc(S(=O)(=O)c2ccc(O)c(N)c2)ccc1O [compound 5105145] | – | – | – | – | -62.0% | -49.7% | -1.2%
– | -10.7% | -4.3% | -11.7% | CCC1CCCCN1C/C=C/c1ccc(N(C)C)cc1 (stereo not shown) [compound 5429735] | – | – | – | – | -23.1% | -0.0537% | 0.3%
– | -20.6% | -25.6% | -14.3% | COc1ccc(NCC2CCCCC2)cc1 [compound 5454631] | – | – | – | – | -52.2% | -40.9% | -0.00487%
– | -31.6% | -39.7% | -32.7% | O=C(Cc1ccccc1)Nc1cc(C(=O)O)c(NC(=O)Cc2ccccc2)cc1C(=O)O [compound 5181020] | – | – | – | – | -40.9% | -35.6% | 0.05%
– | -23.3% | -49.0% | -23.3% | Cc1nc2ccc(Cl)cc2c2c(N)c3ccccc3n12 [compound 5219795] | – | – | – | – | -30.5% | -14.8% | 0.6%
– | -17.8% | -17.8% | 4.3% | CC(C)c1nnc(NC(=O)c2cccc([N+](=O)[O-])c2)s1 [compound 5210298] | – | – | – | – | -36.0% | -67.3% | -4.4%
– | -10.0% | -5.7% | -6.2% | CCCCc1c(C(=O)O)cc(C)cc1C(=O)O [compound 5119061] | – | – | – | – | -13.1% | -6.2% | 0.737%
– | -12.9% | -11.9% | -4.7% | Cn1c(/C=C/c2ccc(Cl)cc2)nc2ccccc21 [compound 5663561] | – | – | – | – | -9.1% | -3.9% | 0.0494%
– | -10.3% | -7.3% | -4.6% | Nc1nc(-c2ccc(Cl)c(Cl)c2)cs1 [compound 5690819] | – | – | – | – | -0.9% | -3.1% | 0.636%
– | -72.6% | -106.6% | -73.9% | Nc1ccc(-c2nc3ccc(N)cc3[nH]2)cc1 [compound 5137121] | – | – | – | – | -89.7% | -61.6% | 1.1%
– | -21.9% | -53.2% | -50.4% | Cc1ccc(S(=O)(=O)c2cc(O)ccc2O)cc1C [compound 5210729] | – | – | – | – | -32.6% | -40.9% | -0.6%
– | -10.0% | -0.9% | -13.3% | CCCCSc1nnc2c(n1)[nH]c1ccc(C)cc12 [compound 5225633] | – | – | – | – | 16.4% | -2.4% | 1.1%
– | -23.5% | -47.6% | -42.6% | O=S(=O)(Nc1ccc(O)c(Br)c1)c1ccc(Cl)cc1 [compound 5158529] | – | – | – | – | -54.3% | -50.5% | -0.4%

From article PMC3933693, “Novel Inhibitors of Mitochondrial sn-Glycerol 3-phosphate Dehydrogenase” (PLoS ONE, 2014)
